These results are taken from US20260245700A1, “METHOD FOR GIVING A RECOMMENDATION ON THE DIETARY ENERGY OF A POULTRY DIET” (Evonik Operations GmbH, priority 2023, published 2026).

The conditions of data set [1]: Vranes et al. 2017; relatively stable during pelleting or extruding; cited from earlier work.
Data set [2] relates to broilers. The settings on record: linear regression, relative scale, control = 100%, cited from earlier work.
In data set [3] the test system is broilers. The conditions noted are these: GAA supplemented in broiler diets, compared to non-supplemented diets, asymptotic; cited from earlier work.
A further data set deals with broiler chickens. The conditions noted are these: cited from earlier work.
Data set [4] concerns broilers. The settings on record: EFSA 2009; Tossenberger et al. 2016; cited from earlier work.
For data set [5], the system named is broilers. In words: Trials in which GAA compensates dietary energy reduction (energy-sparing value). The class given is in vivo. The text has this: Reduction of dietary energy content and adding GAA to the feed restored broiler performance, which supports this conclusion (Malins et al., 2017; Mousavi S. N., Afsar A., Lotfollahian H. (2013) Effects of guanidinoacetic acid supplementation to broiler diets with varying energy contents, Journal of Applied Poultry Research, Volume 22, Issue 1, 2013, Pages 47-54, ISSN 1056-6171, https://doi.org/10.3382/japr.2012-00575; Heger, J., J. Zelenka, V. Machander, C. Cruz, M. Lestak, and D. Hampel. (2014) “Effects of Guanidinoacetic Acid Supplementation to Broiler Diets with Varying Energy Content.” Acta Universitatis Agriculturae Silviculturae Mendelianae Brunensis 62: 477-485. doi:10.11118/actaun201462030477; Abudabos, A. M., F. Saleh, A. Lemme, and H. A. H. Zakaria (2014) “The Relationship between Guanidino Acetic Acid and Metabolisable Energy Level of Diets on Performance of Broiler Chickens.” Italian Journal of Animal Science 13: 548-556. doi:10.4081/ijas.2014.3269).
The energy reduction level as well as the GAA supplementation rate was not always the same in trails in which GAA was used to compensate for energy reduction. In most trials dietary energy level of a standard diet was reduced by 50 kcal/kg feed and 0.06% GAA was supplemented to maintain bird performance. This would be equivalent to an energy-sparing value of 83.333 kcal/kg of GAA. However, considering all 20 identified independent trials in which GAA was used to compensate for dietary energy reduction, a wide range of energy-sparing values from 41.667 to 568.333 kcal/kg was tested. […] It can be predicted that an energy-sparing value of 163.889 kcal/kg GAA maintains BWG of the birds, whereas there is still a small improvement for FCR. For FCR, it was found out that even an energy-sparing value of 197.222 kcal/kg GAA maintains performance.

In data set [6] the test system is broilers. The settings on record: reduced dietary energy content plus GAA added to the feed; cited from earlier work.

Read-outs that look alike come from different tables or passages of the source. Some results are limits rather than exact numbers.

Regarding `N=C(N)NCC(=O)O` [GAA, Guanidinoacetic acid], the thermal stability entry in data set [1] is given as “high”. Further, the FCR improvement with broilers [2] (GAA dose 0.6 g/kg) is listed as 4.5 points; in the data set with broilers [2] (GAA dose 1.2 g/kg), 8.8 points. Also, the “increase of muscle CREA, maximum” value with broilers [3] is no more than 29%. Also, the replacement efficiency with broiler chickens (1.7 g/kg L-ARG compensated by 1.2 g/kg GAA (Dilger et al. 2013)) was 142%. For the same compound, the “circulatory ARG levels” value in the data set with broiler chickens (birds fed ARG-deficient diets (DeGroot et al. 2018)) is reported as “increased”. Besides, the L-ARG compensated in the data set with broiler chickens (by 1.2 g/kg GAA (Dilger et al. 2013)) was 1.7 g/kg. Also, in the data set on broiler chickens (very ARG-deficient diet, at 1.2 g/kg supplemental GAA (Dilger et al. 2013)), the “supplemental L-ARG needed to reach a given feed conversion ratio” value is on record as 2.1 g/kg. Further, in the data set on broiler chickens (very deficient ARG diets (Dilger et al. 2013)), the ARG-sparing effect is recorded as 143%. Moreover, the bioavailability result in the data set on broilers [4] is recorded as “high”. Moreover, the “energy-sparing value that maintains performance for FCR” value in the data set with broilers [5] (from 20 independent trials) is on record as 197.222 kcal/kg GAA. Besides, the “energy GAA can compensate (energy-sparing value)” value in the data set with broilers [5] (overall, 20 independent trials) is reported as “more than 83.333 kcal/kg”. The “energy-sparing value that maintains BWG” value with broilers [5] (predicted from 20 independent trials, still a small improvement for FCR) is given as 163.889 kcal/kg GAA. For the same compound, the broiler performance entry in the data set on broilers [6] is “restored”.
